Source: ChEMBL document CHEMBL3120141, “Discovery of (1R,6S)-5-[4-(1-cyclobutyl-piperidin-4-yloxy)-phenyl]-3,4-diaza-bicyclo[4.1.0]hept-4-en-2-one (R,S-4a): histamine H(3) receptor inverse agonist demonstrating potent cognitive enhancing and wake promoting activity” (Bioorg Med Chem Lett, 2014)

Legend:
[1] = target: Histamine H3 receptor (Homo sapiens, UniProt Q9Y5N1); assay: Displacement of [3H]NAMH from human histamine H3 receptor transfected in CHO cells; format: cell-based
[2] = target: Histamine H3 receptor (Rattus norvegicus, UniProt Q9QYN8); assay: Displacement of [3H]NAMH from rat histamine H3 receptor transfected in CHO cells; format: cell-based
Sequence of Histamine H3 receptor (Rattus norvegicus, UniProt Q9QYN8) (Q9QYN8 whole entry): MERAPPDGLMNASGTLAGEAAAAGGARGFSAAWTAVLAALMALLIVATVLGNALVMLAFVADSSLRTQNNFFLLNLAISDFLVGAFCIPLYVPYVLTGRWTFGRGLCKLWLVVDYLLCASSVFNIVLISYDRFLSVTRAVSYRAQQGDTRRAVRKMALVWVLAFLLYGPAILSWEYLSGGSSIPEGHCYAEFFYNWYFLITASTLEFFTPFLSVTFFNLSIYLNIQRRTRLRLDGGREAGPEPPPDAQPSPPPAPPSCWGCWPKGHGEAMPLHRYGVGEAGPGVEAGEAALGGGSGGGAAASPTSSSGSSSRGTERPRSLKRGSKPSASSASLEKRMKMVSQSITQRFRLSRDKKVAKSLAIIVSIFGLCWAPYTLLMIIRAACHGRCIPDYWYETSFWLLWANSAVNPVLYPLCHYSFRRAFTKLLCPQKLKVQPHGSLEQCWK

[3] = organism: Homo sapiens; assay: Selectivity ratio for human histamine H3 receptor over human histamine H1 receptor
[4] = organism: Homo sapiens; assay: Selectivity ratio for human histamine H3 receptor over human histamine H4 receptor
[5] = organism: Homo sapiens; assay: Selectivity ratio for human histamine H3 receptor over human histamine H2 receptor

Sequence of Histamine H3 receptor (Homo sapiens, UniProt Q9Y5N1) (Q9Y5N1 whole entry): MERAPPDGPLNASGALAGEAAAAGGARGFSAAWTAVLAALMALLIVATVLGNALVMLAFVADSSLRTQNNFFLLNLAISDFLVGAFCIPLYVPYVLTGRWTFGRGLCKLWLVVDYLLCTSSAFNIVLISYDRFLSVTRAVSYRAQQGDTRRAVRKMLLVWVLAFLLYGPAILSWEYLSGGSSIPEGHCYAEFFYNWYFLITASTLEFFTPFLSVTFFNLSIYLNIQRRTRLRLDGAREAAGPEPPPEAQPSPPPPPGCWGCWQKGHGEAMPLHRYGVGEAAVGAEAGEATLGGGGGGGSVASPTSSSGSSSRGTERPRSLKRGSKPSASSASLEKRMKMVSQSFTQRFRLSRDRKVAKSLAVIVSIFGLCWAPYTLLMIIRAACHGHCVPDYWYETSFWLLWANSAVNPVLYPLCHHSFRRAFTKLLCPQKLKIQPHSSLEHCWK

Ki [1] [nM]	Ki [2] [nM]	Selectivity ratio [3]	Selectivity ratio [4]	Selectivity ratio [5]	SMILES
173	228	–	–	–	CCN1CCC(Oc2ccc(C3=NNC(=O)C4CC34)cc2)CC1 (racemic)
6.9	5.6	> 1000	> 1000	> 1000	CC(C)N1N=C(c2ccc(OC3CCN(C4CCC4)CC3)cc2)C2CC2C1=O (racemic)
3.6	5.7	> 1000	> 1000	> 1000	CN1N=C(c2ccc(OC3CCN(C4CCCC4)CC3)cc2)C2CC2C1=O (racemic)
